Laboratory results published in patent US20100286247A1, “Methods of Protection from Oxidative Stress” (Trustees of Boston University, priority 2005, published 2010).
{P} = phosphate

How the values were obtained:
SOD1 protein = assay: Western blot analysis of antioxidant enzymes: SOD1 protein; assay type: cell-based, human; details: 40 μM, within several hours, up to 168 hours
Procedure: Cell lysates were harvested at various intervals after T-oligo treatment in harvest buffer containing 0.25 M Tris HCl (pH 7.5), 0.375 M NaCl, 2.5% sodium deoxycholate, 1% Triton X-100, 25 mM MgCl2, 0.1 mg/ml aprotinin (Sigma, St. Louis, Mo.) and 1 mM phenylmethyl sulfonyl flouride (PMSF) (Sigma). Samples were sheared through a fine needle syringe, sonicated, centrifuged and the supernatant was isolated. Total cellular protein concentrations were determined spectrophotometrically with the Bio-Rad protein assay (Bio-Rad Laboratories, Inc, Hercules, Calif.). Equal amounts of total protein from each sample (35-65 μg) were separated by 10-15% polyacrylamide gel electrophoresis, and transferred to nitrocellulose membranes. […]
Membranes were reacted with antibodies diluted in Tris-based buffer with nonfat milk powder as a blocking agent. […] Antibody binding was detected with electrochemical luminescence (ECL kit, NEN Life Science Products, Inc.) and exposure to XAR film (Eastman Kodak Co.).
The levels of superoxide dismutase 1 (SOD1), superoxide dismutase 2 (SOD2), catalase (Cat) and glutathione peroxidase (GPX) were determined in newborn fibroblasts at different time points after treatment with 40 μM of T-oligo in comparison with cells treated either with 40 μM of control complementary oligo pCTAACCCTAAC (SEQ ID NO: 22) or diluent. […]

total p53 protein = assay: Western blot of total p53 (DO-1); assay type: cell-based, human; details: by 36-48 hours, sustained through 72 hours; 40 μM TO, 100 μM pTT
Procedure: Western blot analysis of proteins from cells treated and harvested in parallel with DCF time course studies was conducted as described above. Membranes were reacted with antibodies to total p53/DO-1 (1:1000 dilution, Oncogene Research Products, Cambridge, Mass.), anti-phoso-p53 (Ser-15) (1:1000 dilution, Cell Signaling Technology, Beverly, Mass.), and p21/Cip1/Waf1 (1:500 dilution, Transduction Laboratories, Lexington, Ky.), followed by appropriate secondary antibodies diluted 1:2000.

melanoma tumors = details: SCID mouse model; cited from earlier work
tumor formation = details: nude mice repeatedly exposed to solar simulated UV; cited from earlier work

Question: Which SOD1 protein level (SOD1 protein) does the source give for “pGTTAGGGTTAG (5' {P}, sugars by position and backbone not given here) [TO]” here?
Answer: Its SOD1 protein level is “induced”.

Question: What about the “total p53 (DO-1) protein response, TO vs pTT” value (total p53 protein) of the same substance?
Answer: Its value is “greater than to pTT”.

Question: And the melanoma tumors (melanoma tumors)?
Answer: Its melanoma tumors is “reduced melanoma tumors”.

Question: And the “incidence of tumor formation” value (tumor formation)?
Answer: Its value is “decreased the incidence of tumor formation”.
